Data taken from publication PMC7255010, “Small-molecule activating SIRT6 elicits therapeutic effects and synergistically promotes anti-tumor activity of vitamin D3 in colorectal cancer” (Theranostics, 2020).
Read-outs that look alike come from different tables or passages of the source.

Experiments:
[1] = system: DLD-1; test: Cell proliferation, CCK-8; format: cell-based; conditions: Homo sapiens; DLD-1, CCK8, 48 h
Procedure: (§1) Cell proliferation was evaluated using a Cell Counting Kit-8 (CCK-8) (Dojindo) following the manufacturer's instructions. Briefly, CRC cells were plated in 96-well plates at a density of 5 × 10^3 cells per well. […] Cells treated with DMSO were used as the […] controls, and the final DMSO concentration in the medium was 0.1%. After 48 h of treatment, 10 μL of CCK-8 solution was added to every well and incubated for 1 h at 37 °C. Then, a microplate reader (Synergy H4 Hybrid Reader, BioTek) was used to measure the absorbance of the solvent at 450 nm. The background of drug and culture medium has been deducted in each well. The relative cell proliferation of each treatment group was expressed as the percentage change relative to the […] control group. Each data point is the mean ± s.d. of two or three independent experiments.

[2] = system: Colo201; test: Cell proliferation, CCK-8; format: cell-based; conditions: Homo sapiens, COLO 201; Colo201, CCK8, 48 h
Procedure: as §1

[3] = system: LS123; test: Cell proliferation, CCK-8; format: cell-based; conditions: Homo sapiens, LS-123; LS123, CCK8, 48 h
Procedure: as §1

[4] = system: Colo205; test: Cell proliferation, CCK-8; format: cell-based; conditions: Homo sapiens, COLO 205; Colo205, CCK8, 48 h
Procedure: as §1

[5] = system: SW480; test: Cell proliferation, CCK-8; format: cell-based; conditions: Homo sapiens; SW480, CCK8, 48 h
Procedure: as §1

[6] = system: SKCO1; test: Cell proliferation, CCK-8; format: cell-based; conditions: Homo sapiens, SK-CO-1; SKCO1, CCK8, 48 h
Procedure: as §1

[7] = system: LS180; test: Cell proliferation, CCK-8; format: cell-based; conditions: Homo sapiens; LS180, CCK8, 48 h
Procedure: as §1

[8] = system: Colo320DM; test: Cell proliferation, CCK-8; format: cell-based; conditions: Homo sapiens, COLO 320DM, CCK8, 48 h
Procedure: as §1

[9] = system: SW1463; test: Cell proliferation, CCK-8; format: cell-based; conditions: Homo sapiens; SW1463, CCK8, 48 h
Procedure: as §1

[10] = system: LS513; test: Cell proliferation, CCK-8; format: cell-based; conditions: Homo sapiens, LS-513; LS513, CCK8, 48 h
Procedure: as §1

[11] = system: SW48; test: Cell proliferation, CCK-8; format: cell-based; conditions: Homo sapiens; SW48, CCK8, 48 h
Procedure: as §1

[12] = system: SW1417; test: Cell proliferation, CCK-8; format: cell-based; conditions: Homo sapiens; SW1417, CCK8, 48 h
Procedure: as §1

[13] = system: Caco2; test: Cell proliferation, CCK-8; format: cell-based; conditions: Homo sapiens, Caco-2; Caco2, CCK8, 48 h
Procedure: as §1

[14] = system: LS174T; test: Cell proliferation, CCK-8; format: cell-based; conditions: Homo sapiens, CCK8, 48 h
Procedure: as §1

[15] = system: T84; test: Cell proliferation, CCK-8; format: cell-based; conditions: Homo sapiens; T84, CCK8, 48 h
Procedure: as §1

[16] = system: RKO; test: Cell proliferation, CCK-8; format: cell-based; conditions: Homo sapiens, CCK8, 48 h
Procedure: as §1

[17] = system: SW1116; test: Cell proliferation, CCK-8; format: cell-based; conditions: Homo sapiens, SW 1116; SW1116, CCK8, 48 h
Procedure: as §1

[18] = system: NCI-H716; test: Cell proliferation, CCK-8; format: cell-based; conditions: Homo sapiens; NCI-H716, CCK8, 48 h
Procedure: as §1

[19] = system: NCI-H508; test: Cell proliferation, CCK-8; format: cell-based; conditions: Homo sapiens; NCI-H508, CCK8, 48 h
Procedure: as §1

[20] = system: HCT15; test: Cell proliferation, CCK-8; format: cell-based; conditions: Homo sapiens, HCT-15; HCT15, CCK8, 48 h
Procedure: as §1

[21] = system: HT29; test: Cell proliferation, CCK-8; format: cell-based; conditions: Homo sapiens, HT-29; HT29, CCK8, 48 h
Procedure: as §1

[22] = system: HCT8; test: Cell proliferation, CCK-8; format: cell-based; conditions: Homo sapiens, HCT-8; HCT8, CCK8, 48 h
Procedure: as §1

[23] = system: LS1034; test: Cell proliferation, CCK-8; format: cell-based; conditions: Homo sapiens, LS-1034; LS1034, CCK8, 48 h
Procedure: as §1

[24] = system: SW620; test: Cell proliferation, CCK-8; format: cell-based; conditions: Homo sapiens, SW-620; SW620, CCK8, 48 h
Procedure: as §1

[25] = system: HCT116; test: Cell proliferation, CCK-8; format: cell-based; conditions: Homo sapiens, HCT-116
Procedure: as §1

[26] = system: LOVO; test: Cell proliferation, CCK-8; format: cell-based; conditions: Homo sapiens, CCK8, 48 h
Procedure: as §1

[27] = system: CYP24A1; test: RT-qPCR of CYP24A1 mRNA in CRC cells; format: cell-based, human
Procedure: Total RNA was extracted with TRIzol reagent (Invitrogen) according to the manufacturer's instructions. For cDNA synthesis, 1 μg of total RNA was reverse transcribed using a FastKing RT Kit (Tiangen). RT-qPCRs were run in triplicate using SYBR Green master mix (Roche) in an ABI 7900 Thermal Cycler (Applied Biosystems) according to the manufacturer's instructions. RT-qPCRs were performed in triplicate, and the mean cycle threshold (Ct) values were calculated for expression analysis. The mRNA levels of target genes were calculated using the 2^-ΔΔCt method. The expression data were normalized to β-actin expression levels and are presented as the mean ± s.e.m. of three independent experiments.

Question: Which results are given for `Cc1cc(F)c(Br)cc1NS(=O)(=O)c1ccc(NS(=O)(=O)c2cc(Cl)cc(Cl)c2)cc1CN1CCOC[C@H]1C` [MDL-811]?
Answer: IC50 [1]: 18 ± 0.1 µM; IC50 [2]: 20.3 ± 1.4 µM; IC50 [3]: 19.8 ± 0.5 µM; IC50 [4]: 38.1 ± 4.4 µM; IC50 [5]: 9.3 ± 1.7 µM; IC50 [6]: 12.1 ± 0.1 µM; IC50 [7]: 19.1 ± 0.4 µM; IC50 [8]: 33.2 ± 0.9 µM; IC50 [9]: 13 ± 1.5 µM; IC50 [10]: 28.6 ± 0.6 µM; IC50 [11]: 10.8 ± 1.5 µM; IC50 [12]: 15.1 ± 1.9 µM; IC50 [13]: 28.7 ± 1.7 µM; IC50 [14]: 23.8 ± 2 µM; IC50 [15]: 13 ± 1.4 µM; IC50 [16]: 12.3 ± 1.8 µM; IC50 [17]: 5.7 ± 0.3 µM; IC50 [18]: 61 ± 2.3 µM; IC50 [19]: 9.7 ± 1.2 µM; IC50 [20]: 20.5 ± 1.3 µM; IC50 [21]: 7 ± 1.1 µM; IC50 [22]: 20.1 ± 2 µM; IC50 [23]: 31.9 ± 0.7 µM; IC50 [24]: 16.7 ± 1.4 µM; IC50 ([25]; HCT116, CCK8, 48 h, read-out: IC50 ± s.d.): 4.7 ± 0.2 µM; IC50 ([25]; HCT116, CCK-8, 48 h, Figure S6, mean ± s.e.m. of three experiments, read-out: IC50): 4.8 ± 0.2 µM; IC50 [26]: 7.8 ± 0.2 µM; 1,25(OH)2D3-enhanced CYP24A1 transcription, cotreatment ([27]; HCT116 and HT29 cells, MDL-811 (5 µM) plus 1,25(OH)2D3 (5 µM), 48 h): effectively abolished; CYP24A1 mRNA expression levels ([27]; HCT116 cells, 10 µM MDL-811, 48 h): markedly decreased CYP24A1 mRNA expression levels
